Measured values published in patent publication US10450318B2, “CXCR4 receptor antagonists” (BRISTOL-MYERS SQUIBB COMPANY, priority 2015, dated 2019).

target: T1, CXCR4 receptors (Homo sapiens, UniProt P61073); assay: CXCR4-CEM calcium flux assay, antagonist mode (inhibition of SDF-1α-induced calcium flux); type: cell-based; details: inhibition of calcium flux induced by 4 nM SDF-1α in CCRF-CEM cells
T1 construct: expressing endogenous CXCR4 receptors; endogenous in cells; host or cells: CCRF-CEM (human T lymphoblast cells)
T1 sequence (P61073 whole entry): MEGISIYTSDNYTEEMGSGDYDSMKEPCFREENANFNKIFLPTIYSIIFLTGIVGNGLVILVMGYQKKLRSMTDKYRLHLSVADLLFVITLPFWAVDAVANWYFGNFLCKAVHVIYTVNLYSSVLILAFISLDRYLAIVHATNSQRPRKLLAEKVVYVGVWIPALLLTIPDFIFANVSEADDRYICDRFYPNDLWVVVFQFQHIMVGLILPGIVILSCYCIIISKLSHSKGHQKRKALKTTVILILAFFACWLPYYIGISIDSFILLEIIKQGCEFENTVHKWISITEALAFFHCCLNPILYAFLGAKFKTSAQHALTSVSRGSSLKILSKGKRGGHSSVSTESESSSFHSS
Summary of the method: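 CCRF-CEM cells were preincubated with compound (0.5% DMSO) for 25 min at room temperature, then stimulated with 4 nM SDF-1α. The resulting calcium flux was recorded by FDSS for 90 sec. Percent inhibition was calculated against an internal control compound, and background-corrected EC50 values were derived.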

Row | Compound | IC50 [nM]
1 | CN(Cc1cn2c(N3CC4CCNC4C3)nccc2n1)[C@H]1CCCc2cccnc21 (stereo partly drawn) [Example 94, (8S)-N-((5-(hexahydropyrrolo[3,4-b]pyrrol-5(1H)-yl)imidazo[1,2-c]pyrimidin-2-yl)methyl)-N-methyl-5,6,7,8-tetrahydroquinolin-8-amine] | 65
2 | C[C@@H]1CN(c2nccc3nc(CN(C)[C@H]4CCCc5cccnc54)cn23)C[C@H](C)N1C [Example 97, (S)—N-Methyl-N-((5-((3S,5R)-3,4,5-trimethylpiperazin-1-yl)imidazo[1,2-c]pyrimidin-2-yl)methyl)-5,6,7,8-tetrahydroquinolin-8-amine] | 480
3 | CN1CCN(c2nccc3nc(CN(C)[C@H]4CCCc5cccnc54)cn23)C[C@@H]1CO [Example 98, ((R)-1-methyl-4-(2-((methyl((S)-5,6,7,8-tetrahydroquinolin-8-yl)amino)methyl)imidazo[1,2-c]pyrimidin-5-yl)piperazin-2-yl)methanol] | 1.9
4 | CN1CCN(c2nccc3nc(CN(C)[C@H]4CCCc5cccnc54)cn23)C[C@H]1CO [Example 99, ((S)-1-methyl-4-(2-((methyl((S)-5,6,7,8-tetrahydroquinolin-8-yl)amino)methyl)imidazo[1,2-c]pyrimidin-5-yl)piperazin-2-yl)methanol] | 27
5 | CN1CCC2CN(c3nccc4nc(CN(C)[C@H]5CCCc6cccnc65)cn34)CC21 (stereo partly drawn) [Example 100, (8S)-N-methyl-N-((5-(1-methylhexahydropyrrolo[3,4-b]pyrrol-5(1H)-yl)imidazo[1,2-c]pyrimidin-2-yl)methyl)-5,6,7,8-tetrahydroquinolin-8-amine] | 210
6 | CN1CCC2CN(c3nccc4nc(CN(C)[C@H]5CCCc6cccnc65)cn34)CC21 (stereo partly drawn) [Example 101, (8S)-N-methyl-N-((5-(1-methylhexahydropyrrolo[3,4-b]pyrrol-5(1H)-yl)imidazo[1,2-c]pyrimidin-2-yl)methyl)-5,6,7,8-tetrahydroquinolin-8-amine] | 220
7 | CN1CCCC2CN(c3nccc4nc(CN(C)[C@H]5CCCc6cccnc65)cn34)CC21 (stereo partly drawn) [Example 102, (8S)-N-methyl-N-((5-(1-methyloctahydro-6H-pyrrolo[3,4-b]pyridin-6-yl)imidazo[1,2-c]pyrimidin-2-yl)methyl)-5,6,7,8-tetrahydroquinolin-8-amine] | 210
8 | CN1CCCC2CN(c3nccc4nc(CN(C)[C@H]5CCCc6cccnc65)cn34)CC21 (stereo partly drawn) [Example 103, (8S)-N-methyl-N-((5-(1-methyloctahydro-6H-pyrrolo[3,4-b]pyridin-6-yl)imidazo[1,2-c]pyrimidin-2-yl)methyl)-5,6,7,8-tetrahydroquinolin-8-amine] | 260
9 | COc1cc2nc(CN(C)[C@H]3CCCc4cccnc43)cn2c(N2CCNCC2)n1 [Example 104, (S)—N-((7-methoxy-5-(piperazin-1-yl)imidazo[1,2-c]pyrimidin-2-yl)methyl)-N-methyl-5,6,7,8-tetrahydroquinolin-8-amine] | 190
10 | COc1cc2nc(CN(C)[C@H]3CCCc4cccnc43)cn2c(N2CCN(C)CC2)n1 [Example 105, (S)—N-((7-Methoxy-5-(4-methylpiperazin-1-yl)imidazo[1,2-c]pyrimidin-2-yl)methyl)-N-methyl-5,6,7,8-tetrahydroquinolin-8-amine] | 100
11 | COc1nc(N2CCN(C)CC2)n2cc(CN(C)[C@H]3CCCc4cccnc43)nc2c1CO [Example 106, (S)-(7-Methoxy-2-((methyl(5,6,7,8-tetrahydroquinolin-8-yl)amino)methyl)-5-(4-methylpiperazin-1-yl)imidazo[1,2-c]pyrimidin-8-yl)methanol] | 370
12 | NCCCCN(Cc1cn2c(O)nccc2n1)[C@H]1CCCc2cccnc21 [Example 107, (S)-2-(((4-Aminobutyl)(5,6,7,8-tetrahydroquinolin-8-yl)amino)methyl)imidazo[1,2-c]pyrimidin-5-ol] | 29
13 | CN(Cc1nc2ccnc(N3CCN4CCC[C@H]4C3)n2c1CO)[C@H]1CCCc2cccnc21 [Example 108, (5-((S)-Hexahydropyrrolo[1,2-a]pyrazin-2(1H)-yl)-2-((methyl((S)-5,6,7,8-tetrahydroquinolin-8-yl)amino)methyl)imidazo[1,2-c]pyrimidin-3-yl)methanol] | 2.1
14 | (8S)-N-((5-(3-(dimethylamino)pyrrolidin- 1-yl)imidazo[1,2-c]pyrimidin-2- yl)methyl)-N-methyl-5,6,7,8- tetrahydroquinolin-8-amine [Example 75] | 11
